Laboratory results reported in ChEMBL document CHEMBL1148802, “Discovery and synthesis of HIV integrase inhibitors: development of potent and orally bioavailable N-methyl pyrimidones” (J Med Chem, 2007).
pIC50: −log10 of the molar value.

What was measured:
[1] = Oral bioavailability in Sprague-Dawley rat; format: ADME, organism-based; conditions: in vivo
[2] = Plasma half life in iv dosed Sprague-Dawley rat; format: ADME, organism-based
[3] = Plasma clearance in Sprague-Dawley rat; format: ADME, organism-based
[4] = Plasma clearance in Beagle dog; format: ADME, organism-based, Canis lupus familiaris
[5] = (§1) AUC in Sprague-Dawley rat at 3 mg/kg, po; format: ADME, organism-based, Plasma; set-up: dose 3 mg/kg, route oral; conditions: Sprague-Dawley, plasma
[6] = system: Human immunodeficiency virus 1; assay: Antiviral activity against HIV1 3b in MT4 cells assessed as decrease in […] p24 core antigen in presence of normal human serum; format: functional; conditions: for IC95: Human immunodeficiency virus 1, 3b, MT4, read-out: CIC95
[7] = AUC in Beagle dog at 1 mg/kg, po; format: ADME, organism-based, Canis lupus familiaris; set-up: dose 1 mg/kg, route oral; conditions: plasma
[8] = Protein binding in Beagle dog plasma; format: ADME, organism-based, Canis lupus familiaris; conditions: read-out: PPB (converted)
[9] = species on record: Homo sapiens; assay: Protein binding in human plasma; conditions: read-out: PPB (converted)
[10] = system: Human immunodeficiency virus 1; assay: Antiviral activity against HIV13b in MT4 cells assessed as decrease in HIV1 p24 core antigen in presence of fetal bovine serum; format: functional, 3b; conditions: for IC95: Human immunodeficiency virus 1, 3b, MT4, read-out: CIC95
[11] = target: Human immunodeficiency virus type 1 integrase (Human immunodeficiency virus 1, UniProt Q7ZJM1); assay: Inhibition of HIV integrase activity by HIV strand transfer assay
[12] = Plasma half life in iv dosed Beagle dog; format: ADME, organism-based, Canis lupus familiaris
[13] = Protein binding in Sprague-Dawley rat plasma; format: ADME, cell-free; conditions: read-out: PPB (converted)
[14] = Oral bioavailability in Beagle dog; format: ADME, organism-based, Canis lupus familiaris; conditions: in vivo
[15] = AUC in Beagle dog at 1.5 mg/kg, po; format: ADME, organism-based, Canis lupus familiaris; set-up: dose 1.5 mg/kg, route oral; conditions: plasma
[16] = AUC in Beagle dog at 0.8 mg/kg, po; format: ADME, organism-based, Canis lupus familiaris; set-up: dose 0.8 mg/kg, route oral; conditions: plasma
[17] = AUC in rhesus monkey at 1 mg/kg, po; format: ADME, organism-based, Macaca mulatta; set-up: dose 1 mg/kg, route oral; conditions: plasma
[18] = Distribution coefficient, log D of the compound; format: physicochemical; conditions: octanol/water
[19] = AUC in Sprague-Dawley rat at 2.3 mg/kg, po; format: ADME, organism-based; set-up: dose 2.3 mg/kg, route oral; conditions: plasma
[20] = AUC in Sprague-Dawley rat at 2.4 mg/kg, po; format: ADME, organism-based; set-up: dose 2.4 mg/kg, route oral; conditions: plasma
[21] = target: Cytochrome P450 3A4 (Homo sapiens, UniProt P08684); assay: Inhibition of human CYP3A4 at 100 uM; format: ADME
[22] = Plasma half life in Beagle dog at 4 mg/kg, iv and 10 mg/kg, po; format: ADME, organism-based, Canis lupus familiaris
[23] = AUC in Beagle dog at 10 mg/kg, po; format: ADME, organism-based, Canis lupus familiaris; set-up: dose 10 mg/kg, route oral; conditions: plasma
[24] = Oral bioavailability in Sprague-Dawley rat at 3 mg/kg; format: ADME, organism-based; conditions: in vivo
[25] = Plasma clearance in rhesus monkey at 1 mg/kg, po and 1 mg/kg, iv; format: ADME, organism-based, Macaca mulatta
[26] = target: Cytochrome P450 2D6 (Homo sapiens, UniProt P10635); assay: Inhibition of human CYP2D6 at 100 uM; format: ADME
[27] = Plasma half life in Sprague-Dawley rat at 3 mg/kg, iv and 3 mg/kg, po; format: ADME, organism-based
[28] = target: Cytochrome P450 2C19 (Homo sapiens, UniProt P33261); assay: Inhibition of human CYP2C19 at 100 uM; format: ADME
[29] = Solubility at pH 7.4; format: physicochemical; conditions: buffer
[30] = Oral bioavailability in Beagle dog at 10 mg/kg; format: ADME, organism-based, Canis lupus familiaris; conditions: in vivo
[31] = target: T1, Cytochrome P450 1A2 (Homo sapiens, UniProt P05177); assay: Inhibition of human CYP1A2 at 100 uM; format: ADME
T1 sequence (P05177 whole entry): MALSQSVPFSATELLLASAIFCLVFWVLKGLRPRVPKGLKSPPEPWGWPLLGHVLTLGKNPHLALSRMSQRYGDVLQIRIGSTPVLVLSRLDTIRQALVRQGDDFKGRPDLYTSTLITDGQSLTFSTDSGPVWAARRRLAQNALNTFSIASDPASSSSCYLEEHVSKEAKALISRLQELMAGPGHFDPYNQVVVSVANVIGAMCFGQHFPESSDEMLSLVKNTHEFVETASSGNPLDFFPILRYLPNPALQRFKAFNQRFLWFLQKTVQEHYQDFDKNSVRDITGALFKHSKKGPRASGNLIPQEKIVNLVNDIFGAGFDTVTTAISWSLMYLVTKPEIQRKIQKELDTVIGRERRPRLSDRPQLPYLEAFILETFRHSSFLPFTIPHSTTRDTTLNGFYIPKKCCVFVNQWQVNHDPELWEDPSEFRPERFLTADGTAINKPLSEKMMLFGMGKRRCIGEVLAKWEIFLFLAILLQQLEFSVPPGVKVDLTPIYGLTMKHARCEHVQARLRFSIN

[32] = Cmax in Beagle dog at 4 mg/kg, iv and 10 mg/kg, po; format: ADME, organism-based, Canis lupus familiaris; conditions: in vivo
[33] = Oral bioavailability in rhesus monkey at 1 mg/kg; format: ADME, organism-based, Macaca mulatta; conditions: in vivo
[34] = Plasma clearance in Sprague-Dawley rat at 3mg/kg, iv and 3mg/kg, po; format: ADME, organism-based
[35] = Plasma half life in rhesus monkey at 1 mg/kg, po and 1 mg/kg, iv; format: ADME, organism-based, Macaca mulatta
[36] = Cmax in Sprague-Dawley rat at 3 mg/kg, iv and 3 mg/kg, po; format: ADME, organism-based; conditions: in vivo
[37] = Plasma clearance in Beagle dog at 4 mg/kg, iv and 10 mg/kg, po; format: ADME, organism-based, Canis lupus familiaris
[38] = system: Rattus norvegicus; assay: as §1; format: ADME, organism-based, Plasma; set-up: dose 3 mg/kg, route oral; conditions: in vivo
[39] = AUC in Beagle dog at 2 mg/kg, po; format: ADME, organism-based, Canis lupus familiaris; set-up: dose 2 mg/kg, route oral; conditions: plasma

Human immunodeficiency virus type 1 integrase, sequence (Q7ZJM1 whole entry): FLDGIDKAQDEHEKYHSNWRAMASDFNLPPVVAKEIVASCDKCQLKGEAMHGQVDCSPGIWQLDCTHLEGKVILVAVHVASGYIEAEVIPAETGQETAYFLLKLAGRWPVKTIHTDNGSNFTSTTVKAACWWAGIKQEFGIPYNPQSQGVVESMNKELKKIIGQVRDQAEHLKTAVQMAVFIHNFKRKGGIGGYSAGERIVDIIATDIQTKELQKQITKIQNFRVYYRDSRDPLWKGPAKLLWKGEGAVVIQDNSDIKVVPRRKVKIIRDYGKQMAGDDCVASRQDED
Cytochrome P450 3A4, sequence (P08684 whole entry): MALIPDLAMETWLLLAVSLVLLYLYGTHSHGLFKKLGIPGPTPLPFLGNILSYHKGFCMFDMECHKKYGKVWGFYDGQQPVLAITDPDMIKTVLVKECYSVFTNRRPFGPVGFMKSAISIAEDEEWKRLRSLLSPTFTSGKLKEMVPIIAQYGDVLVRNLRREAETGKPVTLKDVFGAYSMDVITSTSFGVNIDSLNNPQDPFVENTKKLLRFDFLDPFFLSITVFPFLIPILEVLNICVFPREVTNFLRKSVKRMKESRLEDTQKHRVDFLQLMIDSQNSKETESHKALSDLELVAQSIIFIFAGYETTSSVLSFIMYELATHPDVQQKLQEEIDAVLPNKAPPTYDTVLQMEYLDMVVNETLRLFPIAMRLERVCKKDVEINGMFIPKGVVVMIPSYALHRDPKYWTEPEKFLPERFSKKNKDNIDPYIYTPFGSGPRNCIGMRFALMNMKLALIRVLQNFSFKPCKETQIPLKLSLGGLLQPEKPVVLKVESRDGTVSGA
Cytochrome P450 2C19, sequence (P33261 whole entry): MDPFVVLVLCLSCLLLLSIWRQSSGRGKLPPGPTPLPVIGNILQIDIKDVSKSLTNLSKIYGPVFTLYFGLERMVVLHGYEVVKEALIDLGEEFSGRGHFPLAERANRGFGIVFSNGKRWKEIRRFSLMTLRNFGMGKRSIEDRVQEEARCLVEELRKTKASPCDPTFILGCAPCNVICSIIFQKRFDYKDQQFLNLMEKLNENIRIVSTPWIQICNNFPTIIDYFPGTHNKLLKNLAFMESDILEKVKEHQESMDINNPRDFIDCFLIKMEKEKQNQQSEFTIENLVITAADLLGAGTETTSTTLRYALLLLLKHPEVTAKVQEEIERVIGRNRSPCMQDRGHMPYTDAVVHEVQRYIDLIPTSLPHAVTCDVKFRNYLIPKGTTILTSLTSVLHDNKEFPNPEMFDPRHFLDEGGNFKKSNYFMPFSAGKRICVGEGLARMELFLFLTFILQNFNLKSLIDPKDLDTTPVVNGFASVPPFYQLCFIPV
Cytochrome P450 2D6, sequence (P10635 whole entry): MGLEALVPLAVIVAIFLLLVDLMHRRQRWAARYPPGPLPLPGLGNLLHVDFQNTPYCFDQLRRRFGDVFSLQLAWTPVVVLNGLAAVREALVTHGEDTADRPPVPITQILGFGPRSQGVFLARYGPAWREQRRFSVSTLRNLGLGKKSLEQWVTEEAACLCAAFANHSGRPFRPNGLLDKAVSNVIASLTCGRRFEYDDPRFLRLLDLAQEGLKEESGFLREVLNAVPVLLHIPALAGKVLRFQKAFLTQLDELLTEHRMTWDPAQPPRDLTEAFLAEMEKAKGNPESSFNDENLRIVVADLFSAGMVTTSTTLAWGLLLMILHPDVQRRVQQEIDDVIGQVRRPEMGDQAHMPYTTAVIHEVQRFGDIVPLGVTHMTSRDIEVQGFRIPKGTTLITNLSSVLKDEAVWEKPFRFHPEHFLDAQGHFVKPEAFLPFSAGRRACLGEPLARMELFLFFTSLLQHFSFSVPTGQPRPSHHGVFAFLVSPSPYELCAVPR

Row | SMILES | bioavailability [1] [%] | half-life [2] [h] | clearance [3] [mL/min/kg] | clearance [4] [mL/min/kg] | AUC [5] [µM·h] | fraction unbound [8] | fraction unbound [9] | pIC50 [11] | half-life [12] [h] | fraction unbound [13] | bioavailability [14] [%] | AUC [17] [µM·h] | logD [18] | IC95 [6] [nM] | IC95 [10] [nM] | CIC95 [6] [µM] | CIC95 [10] [µM] | also measured
1 | CN1C[C@H](OCc2ccccc2)C[C@H]1c1nc(C(=O)NCc2ccc(F)cc2)c(O)c(=O)n1C | 75 | 2.3 | 28 | – | – | – | 0.05 | 6.89 | – | 0.07 | – | – | 2.2 | 310 | < 80 | – | – | AUC [20]: 2.3 µM·h
2 | CN1CCOCC1c1nc(C(=O)NCc2ccc(F)cc2)c(O)c(=O)n1C.Cl (single isomer, unassigned; (+)) | – | – | – | – | 8 | – | – | – | – | – | – | 2.2 | – | – | – | 65 | 40 | Activity [21]: Not Active; half-life [22]: 7.2 h; AUC [23]: 136 µM·h; bioavailability [24]: 56%; clearance [25]: 14 mL/min/kg; Activity [26]: Not Active; half-life [27]: 1.1 h; Activity [28]: Not Active; solubility [29]: 5800 µg/mL; bioavailability [30]: 69%; Log D [18]: 0.47; Activity [31]: Not Active; Cmax [32]: 35 µM; bioavailability [33]: 73%; clearance [34]: 9 mL/min/kg; half-life [35]: 2 h; Cmax [36]: 5.6 µM; clearance [37]: 2.2 mL/min/kg

More lines, main results first:

Row | bioavailability [1] [%] | half-life [2] [h] | clearance [3] [mL/min/kg] | clearance [4] [mL/min/kg] | AUC [5] [µM·h] | fraction unbound [8] | fraction unbound [9] | pIC50 [11] | half-life [12] [h] | fraction unbound [13] | bioavailability [14] [%] | AUC [17] [µM·h] | logD [18] | SMILES | IC95 [6] [nM] | IC95 [10] [nM] | CIC95 [6] [µM] | CIC95 [10] [µM] | also measured
3 | 93 | 0.6 | 11 | 5 | 11.8 | 0.15 | 0.12 | 7.52 | 6 | 0.06 | 100 | – | – | CN1CC(F)(F)C[C@H]1c1nc(C(=O)NCc2ccc(F)cc2)c(O)c(=O)n1C | 170 | 30 | – | – | AUC [7]: 9.9 µM·h
4 | 92 | 1.6 | 22 | 3 | – | 0.53 | – | – | 10 | 0.22 | 100 | 1.7 | 0.59 | CN1CCOCC1c1nc(C(=O)NCc2ccc(F)cc2)c(O)c(=O)n1C (stereo unspecified) | – | – | 0.1 | 0.06 | AUC [15]: 22 µM·h; AUC [16]: 11 µM·h; AUC [19]: 4.3 µM·h
5 | 84 | 1 | 18 | 2.6 | – | – | – | – | 1.9 | – | 87 | – | – | CN1CCOCC1c1nc(C(=O)NCc2ccc(F)cc2)c(O)c(=O)n1C.Cl (single isomer, unassigned; (-)) | – | – | 190 | 90 | AUC [38]: 6 µM·h; AUC [39]: 29 µM·h
